Experimental data reported in patent US20200289521A1, “USE OF VITAMIN K IN COMBINATION WITH ANTICOAGULANTS” (KAYDENCE PHARMA AS, priority 2019, published 2020).

Experiments:
VSMCs [1] = experiment: Warfarin-induced oxidative stress in VSMCs, effect of vitamin K2 (DCFDA); type: cell-based
Protocol: It is known that the level of reactive oxygen species in cells can be measured by measuring the conversion of 2′,7′-dichlorofluorescein diacetate (DCFDA) to the fluorescent dye 2′,7′-dichlorofluorescein (DCF). The fluorescence generated by cells subjected to DCFDA is directly proportional to the amount of oxidized DCFDA to DCF.
This study was performed to determine if vitamin K2 (MK-7) reduces warfarin-induced oxidative stress. To perform the study, VSMCs (10,000 cells/well) were plated in a 96-well plate and left to adhere overnight. Next, cells were incubated for 24 hours with 100 μM warfarin. The next day, 20 μM DCFDA was added to the cells for 1 hour. The cells were then incubated for 5 hours with normal medium (baseline), vitamin K2 (MK-7), or warfarin. Fluorescence was measured and fluorescence intensity was normalized for cell count.

[2] = Thrombin Time (TT), Coag-Chrom 3003, treated Sprague-Dawley rats; type: in vivo; conditions: added to dabigatran and to rivaroxaban
Protocol: To perform the study, 45 wild-type male Sprague-Dawley and 45 transgenic male Ren-2 rats [TGR(mREN-2)27] at the age of 10-11 weeks at the beginning of the treatment period were purchased from animal facility IKEM-CEM Institute of Clinical and Experimental Medicine (Prague, Czech Republic). All animals in the experiment were housed in individually ventilated cages (2-3 rats per cage) and kept in the animal rooms of JCET at a relative humidity of 55±10%, a temperature of 22±2° C., and a light cycle of 7 AM to 7 PM. The rats had free access to food and water. After delivery, animals were randomly divided into 10 experimental groups (5 or 10 rats per group), as indicated below in Table 1.
Four days before the start of the treatment, the first part of animals' body weight and food intake was measured in selected representative three cages (rats n=9) to calculate the appropriate amount of tested compounds required for addition to the diet to obtain the dosing indicated in Table 1. It was estimated that food intake was approximately 30 g of chow per rat per day. […] The body mass of the rats was measured at the beginning and at the end of treatment.
Prothrombin Time (PT), activated Partial Thromboplastin Time (aPTT), Thrombin Time (TT) and fibrinogen levels (Clauss method) were determined according to the manufacturer's instructions using Coag-Chrom 3003 apparatus (Bio-ksel, Grudziadz, Poland). […]

VSMCs [3] = experiment: ATP increase in VSMCs, 48 hours, with CoCl2 arm (luminescence); type: cell-based
Protocol: This study was performed to further investigate the origin of ATP production that is influenced by vitamin K2 (MK-7). To perform this study, VSCMs (5000 cells/well) were plated in 96-well plates and left to adhere overnight. Next, cells were incubated for 48 hours with either vehicle, CoCl2 (100 μM), vitamin K2 (MK-7) (10 μM), or UQ10 (10 μM). Hoechst was added to correct for cell number (1 μg/mL). Next, ATP was measured using mammalian lysis buffer for 5 minutes, after which 50 μL ATP substrate solution was added to the wells and incubated for 10 minutes in a dark environment. Finally, medium was transferred to a white plate to measure luminescence.

[4] = tested on: human vascular smooth muscle cells (hVSMCs); experiment: ATP measurement in hVSMCs with warfarin and/or vitamin K2 (luminescence); type: cell-based; conditions: 24 hours
Protocol: This study was performed in order to determine the effect of vitamin K2 (MK-7) on warfarin-induced oxidative stress in muscles. To perform this study, human vascular smooth muscle cells (hVSMCs; 5,000 cells/well) were plated in 96-well dark plates and left to adhere overnight. Next, cells were incubated for 24 hours with either vehicle only (as blank control), warfarin (10 or 50 μM), vitamin K2 (MK-7) (10 μM), or a combination of warfarin (50 μM) and vitamin K2 (MK-7) (10 μM). Hoechst was added to correct for cell number (1 μg/mL). Next, ATP was measured using mammalian lysis buffer for 5 minutes after which 50 μL ATP substrate solution was added to the wells and incubated for 10 minutes in a dark environment. Finally, medium was transferred to a white plate to measure luminescence.

VSMCs [5] = experiment: Hypoxia (CoCl2) induced oxidative stress in VSMCs (DCFDA); type: cell-based; conditions: 50 μM CoCl2 for 19 hours; test substance 10 μM; 6 hours
Protocol: This study was performed to determine whether intracellular oxidative stress in VSCMs is derived from mitochondrial dysfunction. To perform this study, VSMCs were incubated with cobalt chloride, a known stabilizer of HIF1a. Cobalt chloride binding to HIF1a prevents the degradation of HIF1a and thus results in a cellular hypoxia state. HIF1a has been implicated in cancer biology as well as a number of other pathophysiologies, specifically in areas of vascularization and angiogenesis, energy metabolism, cell survival, and tumor invasion. Under normal circumstances, after injury, HIF1a is degraded by the enzyme prolyl hydroxylase (PHD). The continued up-regulation of HIF1a (mimicked by cobalt chloride) promotes tumor growth and metastasis through its role in initiating angiogenesis and regulating cellular metabolism to overcome hypoxia. Hypoxia promotes apoptosis in both normal and tumor cells. Additionally, hypoxia generates significant intracellular oxidative stress.
To perform the study, VSMCs (10,000 cells/well) were plated in a 96-well plate and left to adhere overnight. Next, the medium was changed to a medium supplemented with 50 μM CoCl2 for 19 hours. The next day, cells were washed and incubated for 1 hour with 20 μM DCFDA in the presence of a vehicle (solvent for CoCl2 and vitamin K2 (MK-7)/UQ10), 10 μM vitamin K2 (MK-7), or 10 μM UQ10 in medium. The medium was then changed to a medium supplemented with vehicle, vitamin K2 (MK-7)/UQ10, or CoCl2, and fluorescent was measured for 6 hours. Fluorescence intensity was normalized for cell count.

## CC(C)=CCC/C(C)=C/CC/C(C)=C/CC/C(C)=C/CC/C(C)=C/CC/C(C)=C/CC/C(C)=C/CC1=C(C)C(=O)c2ccccc2C1=O [vitamin K2 (MK-7)]
VSMCs [1]; 5 hours incubation, no warfarin
  normal oxidative stress: reduced not only normal oxidative stress
VSMCs [1]; 24 hours 100 μM warfarin, then 5 hours incubation
  warfarin-induced oxidative stress: counteracted the warfarin-induced oxidative stress
[2]
  increase of thrombin time by addition of vitamin K2 (MK-7): 5-7%
VSMCs [3]; 10 μM vs CoCl2 100 μM
  ATP levels compared to CoCl2: significant higher ATP levels
VSMCs [3]; CoCl2 100 μM, vitamin K2 (MK-7) 10 μM
  ATP production compared to vehicle: increased ATP production slightly, though significant
[4]; warfarin 10 or 50 μM, vitamin K2 (MK-7) 10 μM
  cell ATP / ATP generation: increased cell ATP
[4]; warfarin 50 μM + vitamin K2 (MK-7) 10 μM
  oxidative stress induced by warfarin: counteracted the oxidative stress induced by warfarin
VSMCs [5]
  hypoxia induced oxidative stress: seems to counteract hypoxia induced oxidative stress
